Test [1] deals with human IgG1. Kind of test: Glycan microarray probed with human IgG1 (control of Table 7). Format: binding.
The target in test [2] is T1, Clec10a-Fc (Mus musculus, UniProt P49300).
T1 construct: cloning the extracellular region of mouse Clec10a into a pME18S expression vector; made in house; host or cells: HEK293T cells
T1 sequence (P49300 57-304 limits assumed): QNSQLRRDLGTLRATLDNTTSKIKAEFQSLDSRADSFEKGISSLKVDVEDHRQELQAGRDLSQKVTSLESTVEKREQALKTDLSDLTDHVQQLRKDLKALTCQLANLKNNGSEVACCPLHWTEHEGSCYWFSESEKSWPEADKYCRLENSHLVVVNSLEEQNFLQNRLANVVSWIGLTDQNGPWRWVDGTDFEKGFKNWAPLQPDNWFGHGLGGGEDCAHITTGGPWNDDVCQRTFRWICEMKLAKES
Nature of the test: Sugar conjugate (glycan) microarray analysis of Clec10a-Fc (Table 7). Format: binding. The following applies: for Signal value, Clec10a-Fc: glycan microarray probed with Clec10a-Fc; for Signal value, Clec10a-Fc with EDTA: glycan microarray probed with Clec10a-Fc with EDTA. As to the method:
A sugar conjugate microarray containing 98 sugar conjugates (Table 3) was prepared according to a known method using a non-contact microarray printing robot (MicroSys 4000; Genomic Solutions).

For the compound `CC(=O)N[C@@H]1[C@@H](O[C@H]2O[C@H](CO)[C@H](O)[C@H](O)[C@H]2NC(C)=O)[C@@H](O)[C@@H](CO)O[C@H]1O` [Forssman disaccharide], the “Signal value, human IgG1” value in test [1] was 0. In test [2], the “Signal value, Clec10a-Fc” value worked out at 0 and the “Signal value, Clec10a-Fc with EDTA” value is 0.
For `OC[C@H]1O[C@H](OCC2O[C@@H](O)[C@H](O)[C@@H](O)[C@@H]2O)[C@H](O)[C@@H](O)[C@H]1O` (stereo partly shown) [Melibiose], in test [1], the “Signal value, human IgG1” value stood at 0. In test [2], the “Signal value, Clec10a-Fc” value is given as 45 and the “Signal value, Clec10a-Fc with EDTA” value was 0.
Regarding `CC(=O)N[C@H]1[C@H]([C@H](O)[C@H](O)CO)O[C@@](O)(C(=O)O)C[C@@H]1O` [Ne̊u5Ac], the “Signal value, human IgG1” value in test [1] worked out at 0. In test [2], the “Signal value, Clec10a-Fc” value is listed as 0 and the “Signal value, Clec10a-Fc with EDTA” value is reported as 0.
Regarding `OC[C@H]1O[C@@H](O[C@H]2[C@H](O)[C@@H](O)[C@H](O)O[C@@H]2CO)[C@H](O)[C@@H](O)[C@H]1O` [Lac], in test [1], the “Signal value, human IgG1” value amounted to 0. Moreover, in test [2], the “Signal value, Clec10a-Fc” value is recorded as 4850 and the “Signal value, Clec10a-Fc with EDTA” value amounted to 0.
As for `CC(=O)N[C@@H]1[C@@H](O[C@@H]2O[C@H](CO)[C@H](O)[C@H](O)[C@H]2O[C@@H]2O[C@@H](C)[C@@H](O)[C@@H](O)[C@@H]2O)[C@H](O)[C@@H](CO)O[C@H]1O` [H type1], in test [1], the “Signal value, human IgG1” value was found to be 0. For the same compound, in test [2], the “Signal value, Clec10a-Fc” value is 1 and the “Signal value, Clec10a-Fc with EDTA” value was 0.
As for `CC(=O)N[C@@H]1[C@@H](O[C@@H]2O[C@H](CO)[C@@H](O)[C@H](O)[C@H]2NC(C)=O)[C@@H](O)[C@@H](CO[C@@H]2O[C@H](CO)[C@@H](O)[C@H](O)[C@H]2NC(C)=O)O[C@@H]1O` [Core4], the “Signal value, human IgG1” value in test [1] was 0. Also, in test [2], the “Signal value, Clec10a-Fc” value is 0 and the “Signal value, Clec10a-Fc with EDTA” value is 0.
In the case of `OC[C@H]1O[C@H](O[C@H]2[C@H](O)[C@@H](O)[C@H](O)O[C@@H]2CO)[C@H](O)[C@@H](O)[C@@H]1O` [Maltose], in test [1], the “Signal value, human IgG1” value is 0. In test [2], the “Signal value, Clec10a-Fc” value was found to be 0 and the “Signal value, Clec10a-Fc with EDTA” value amounted to 1.
Turning to `O=P(O)(O)OC[C@H]1O[C@H](O)[C@@H](O)[C@@H](O)[C@@H]1O` [[6P]Man], the “Signal value, human IgG1” value in test [1] is reported as 0. For the same compound, in test [2], the “Signal value, Clec10a-Fc” value was determined as 0 and the “Signal value, Clec10a-Fc with EDTA” value amounted to 0.
Turning to `CC(=O)N[C@@H]1[C@@H](O)[C@H](O[C@@H]2O[C@H](CO)[C@H](O)[C@H](O)[C@H]2NC(C)=O)[C@@H](CO)O[C@H]1O` [LDN], the “Signal value, human IgG1” value in test [1] stood at 0. In test [2], the “Signal value, Clec10a-Fc” value is recorded as 0 and the “Signal value, Clec10a-Fc with EDTA” value is 0.
With `CC(=O)N[C@H]1[C@H]([C@H](O)[C@H](O)CO)O[C@@](O[C@H](CO)[C@@H](O)[C@@H]2O[C@@](O)(C(=O)O)C[C@H](O)[C@H]2NC(C)=O)(C(=O)O)C[C@@H]1O` [Siα2], the “Signal value, human IgG1” value in test [1] is listed as 0. For the same compound, in test [2], the “Signal value, Clec10a-Fc” value was determined as 0 and the “Signal value, Clec10a-Fc with EDTA” value is given as 0.
Take `CC(=O)N[C@@H]1[C@@H](O[C@@H]2O[C@H](CO)[C@H](O)[C@H](O)[C@H]2O)[C@@H](O)[C@@H](CO)O[C@@H]1O` [T (Core1)]: the “Signal value, human IgG1” value in test [1] is on record as 0. Besides, in test [2], the “Signal value, Clec10a-Fc” value worked out at 2504 and the “Signal value, Clec10a-Fc with EDTA” value is reported as 0.
Consider `CC(=O)N[C@H]1[C@@H](O[C@@H]2[C@@H](O)[C@H](O)O[C@H](CO)[C@@H]2O)O[C@H](CO)[C@H](O)[C@@H]1O` [A-di], for which the “Signal value, human IgG1” value in test [1] came out at 0. Further, in test [2], the “Signal value, Clec10a-Fc” value is given as 1137 and the “Signal value, Clec10a-Fc with EDTA” value is 0.
On to `CC(=O)N[C@H]1[C@H]([C@H](O)[C@H](O)CO)O[C@@](O[C@H]2[C@@H](O)[C@@H](CO)O[C@@H](O[C@H]3[C@H](O)[C@@H](O)[C@H](O)O[C@@H]3CO)[C@@H]2O)(C(=O)O)C[C@@H]1O` [3′SL], for which the “Signal value, human IgG1” value in test [1] is listed as 0. Also, in test [2], the “Signal value, Clec10a-Fc” value is given as 5 and the “Signal value, Clec10a-Fc with EDTA” value is 0.
Consider `CC(=O)N[C@@H]1[C@@H](O)[C@H](O[C@@H]2O[C@H](COS(=O)(=O)O)[C@H](O)[C@H](O)[C@H]2O)[C@@H](CO)O[C@H]1O` [[6′S]LN], for which, in test [1], the “Signal value, human IgG1” value stood at 0. Also, in test [2], the “Signal value, Clec10a-Fc” value stood at 0 and the “Signal value, Clec10a-Fc with EDTA” value was found to be 0.
With `CC(=O)N[C@@H]1[C@@H](O)[C@H](O[C@@H]2O[C@H](CO)[C@H](O)[C@H](O)[C@H]2O)[C@@H](CO)O[C@H]1O` [LN], the “Signal value, human IgG1” value in test [1] was 0. Also, in test [2], the “Signal value, Clec10a-Fc” value turned out to be 7 and the “Signal value, Clec10a-Fc with EDTA” value amounted to 0.
With `CC(=O)N[C@@H]1[C@@H](O[C@H]2O[C@H](CO)[C@H](O)[C@H](O)[C@H]2O)[C@@H](O)[C@@H](CO)O[C@@H]1O` [Core8], in test [1], the “Signal value, human IgG1” value came out at 0. In test [2], the “Signal value, Clec10a-Fc” value is 0 and the “Signal value, Clec10a-Fc with EDTA” value was found to be 0.
`CC(=O)N[C@@H]1[C@@H](O[C@@H]2O[C@H](CO)[C@H](O)[C@H](OS(=O)(=O)O)[C@H]2O)[C@H](O[C@@H]2O[C@@H](C)[C@@H](O)[C@@H](O)[C@@H]2O)[C@@H](CO)O[C@H]1O` [[3S]Lea]: the “Signal value, human IgG1” value in test [1] was 0. Moreover, in test [2], the “Signal value, Clec10a-Fc” value was 0 and the “Signal value, Clec10a-Fc with EDTA” value worked out at 0.
On to `CC(=O)N[C@@H]1[C@@H](O)[C@@H](O)[C@@H](CO)O[C@H]1O` [βGalNAc], for which, in test [1], the “Signal value, human IgG1” value worked out at 0. Also, in test [2], the “Signal value, Clec10a-Fc” value stood at 6 and the “Signal value, Clec10a-Fc with EDTA” value is 0.
With `CC(=O)N[C@@H]1[C@@H](O)[C@H](O[C@@H]2O[C@H](CO)[C@H](O)[C@H](O[C@H]3O[C@H](CO)[C@H](O)[C@H](O)[C@H]3NC(C)=O)[C@H]2O[C@@H]2O[C@@H](C)[C@@H](O)[C@@H](O)[C@@H]2O)[C@@H](CO)O[C@H]1O` [A], the “Signal value, human IgG1” value in test [1] was 0. Further, in test [2], the “Signal value, Clec10a-Fc” value is listed as 0 and the “Signal value, Clec10a-Fc with EDTA” value worked out at 0.
In the case of `CC(=O)N[C@@H]1[C@@H](O)[C@H](O)[C@@H](CO)O[C@H]1O` [BGlcNAc], in test [1], the “Signal value, human IgG1” value came out at 205. Further, in test [2], the “Signal value, Clec10a-Fc” value is 0 and the “Signal value, Clec10a-Fc with EDTA” value was found to be 0.
As to `CC(=O)N[C@@H]1[C@@H](O[C@@H]2O[C@H](CO)[C@H](O)[C@H](O)[C@H]2O)[C@@H](O)[C@@H](CO[C@]2(C(=O)O)C[C@H](O)[C@@H](NC(C)=O)[C@H]([C@H](O)[C@H](O)CO)O2)O[C@@H]1O` [Siaα2-6Core 1], the “Signal value, human IgG1” value in test [1] is given as 0. In addition, in test [2], the “Signal value, Clec10a-Fc” value is reported as 0 and the “Signal value, Clec10a-Fc with EDTA” value came out at 0.
`CC(=O)N[C@@H]1[C@@H](O[C@@H]2O[C@@H](C)[C@@H](O)[C@@H](O)[C@@H]2O)[C@H](O)[C@@H](CO)O[C@H]1O` [Fucα3GlcNAc]: the “Signal value, human IgG1” value in test [1] was 0. Further, in test [2], the “Signal value, Clec10a-Fc” value stood at 0 and the “Signal value, Clec10a-Fc with EDTA” value came to 0.
For the compound `CC(=O)N[C@@H]1[C@@H](O[C@@H]2O[C@H](CO)[C@@H](O)[C@H](O)[C@H]2NC(C)=O)[C@@H](O)[C@@H](CO)O[C@@H]1O` [Core3], the “Signal value, human IgG1” value in test [1] stood at 0. In test [2], the “Signal value, Clec10a-Fc” value came to 0 and the “Signal value, Clec10a-Fc with EDTA” value is recorded as 0.
`CC(=O)N[C@@H]1[C@@H](O[C@@H]2O[C@H](CO)[C@H](O)[C@H](O)[C@H]2O)[C@H](O)[C@@H](CO)O[C@H]1O` [Lec]: the “Signal value, human IgG1” value in test [1] was determined as 0. Also, in test [2], the “Signal value, Clec10a-Fc” value worked out at 2414 and the “Signal value, Clec10a-Fc with EDTA” value is given as 0.
For the compound Chitobiose, in test [1], the “Signal value, human IgG1” value was determined as 0. Further, in test [2], the “Signal value, Clec10a-Fc” value was determined as 0 and the “Signal value, Clec10a-Fc with EDTA” value amounted to 0.
On to `CC(=O)N[C@@H]1[C@@H](O)[C@H](O)[C@@H](COS(=O)(=O)O)O[C@H]1O` [[6S]BGlcNAc], for which the “Signal value, human IgG1” value in test [1] is given as 318. In addition, in test [2], the “Signal value, Clec10a-Fc” value stood at 0 and the “Signal value, Clec10a-Fc with EDTA” value was 0.
For the compound `O=C(CO)N[C@H]1[C@H]([C@H](O)[C@H](O)CO)O[C@@](O)(C(=O)O)C[C@@H]1O` [Ne̊u5Gc], the “Signal value, human IgG1” value in test [1] was found to be 0. In test [2], the “Signal value, Clec10a-Fc” value is on record as 0 and the “Signal value, Clec10a-Fc with EDTA” value came to 0.
Take αGalNAc [Tn antigen]: in test [1], the “Signal value, human IgG1” value was determined as 0. Also, the “Binding of Clec10a-Fc in glycan microarray” value in test [2] (Clec10a-Fc 10 μg/mL) was “binds”. For the same compound, in test [2], the “Signal value, Clec10a-Fc” value came to 682 and the “Signal value, Clec10a-Fc with EDTA” value was 0.
As for `CC(=O)N[C@@H]1[C@@H](O)[C@H](O[C@@H]2O[C@@H](C)[C@@H](O)[C@@H](O)[C@@H]2O)[C@@H](CO)O[C@H]1O` [Fucα4GlcNAc], the “Signal value, human IgG1” value in test [1] is reported as 0. Besides, in test [2], the “Signal value, Clec10a-Fc” value is given as 0 and the “Signal value, Clec10a-Fc with EDTA” value is on record as 0.
For `CC(=O)N[C@@H]1[C@@H](O)[C@H](O[C@@H]2O[C@H](CO)[C@H](O)[C@H](O[C@H]3O[C@H](CO)[C@H](O)[C@H](O)[C@H]3O)[C@H]2O[C@@H]2O[C@@H](C)[C@@H](O)[C@@H](O)[C@@H]2O)[C@@H](CO)O[C@H]1O` [B], in test [1], the “Signal value, human IgG1” value turned out to be 0. Also, in test [2], the “Signal value, Clec10a-Fc” value is given as 0 and the “Signal value, Clec10a-Fc with EDTA” value was 0.
With `C[C@@H]1O[C@@H](O[C@@H]2[C@@H](O)[C@@H](O)[C@@H](CO)O[C@H]2O)[C@@H](O)[C@H](O)[C@@H]1O` [Fucα2Gal], the “Signal value, human IgG1” value in test [1] turned out to be 0. Besides, in test [2], the “Signal value, Clec10a-Fc” value is given as 0 and the “Signal value, Clec10a-Fc with EDTA” value is 0.
